The source of these data is patent US9393316B2, “Cancer targeting peptides for enhancing anti-cancer drug delivery and therapeutic efficiencies” (priority 2014, dated 2016).

One experiment relates to HCT116 cells. Nature of the experiment: ELISA screening of phage clones on HCT116 cells (cellular ELISA). The experiment is classed as binding, human. The note with it: HCT116, cell line panel. As for the experimental part:
(§1) The selected phages were further identified by ELISA screening. 1×10^4 cells were seeded into each well of 96-well ELISA plates (Falcon, Calif., USA) overnight and were fixed with 2% paraformaldehyde or methanol/acetone (1:1) for 10 min at RT. The plates were washed twice with PBS and were blocked with 1% BSA in PBS (w/v) for 30 min at RT. Then individual phage clones were added and incubated for 1 hr at RT. Following washing three times with PBS, the plates were incubated with horseradish peroxidase (HRP)-conjugated mouse anti-M13 phage antibody (GE Healthcare) at 1:2000 dilution for 1 hr at RT. The plates were washed three times with PBS again, and were subsequently incubated with the peroxidase substrate o-phenylenediamine dihydrochloride (OPD; Sigma) plus H2O2. The reaction was terminated by 3 N HCl, and the absorbance was measured using microplate reader (Model 680, BioRad) at 490 nm.

For experiment [1], the system named is HCT116 xenografts. The experiment can be described thus: In vivo tumor homing, phage titer in tumor and organs. The note with it: 2×10^11 pfu i.v., PBS perfusion; vs brain, lungs, heart. Also on record: species or system mice. As for the experimental part:
Non-obese diabetic-severe combined immunodeficiency (NOD/SCID) mice were injected subcutaneously (s.c.) into the dorsolateral flank with 5×10^6 HCT116 cells. When the xenograft tumor size reached 300±50 mm^3, the mice were injected intravascularly (i.v.) with 2×10^11 pfu of the targeting phage or control phage M13KO7. Seven min after injection, the mice were sacrificed and perfused through the heart with 50 mL of PBS to wash unbound phages. After perfusion, xenograft tumor and mouse organs were taken out, washed three times with cold PBS, and cut into pans, with some of them homogenized. The phages bound to each tissue sample were recovered by log-phase Escherichia coli ER2738 culture and were titered on LB/IPTG/X-Gal agar plates. In peptide competitive inhibition experiments, 2×10^9 pfu of phage was co-injected with 100 μg of corresponding peptide or an unrelated control peptide.
To investigate the targeting ability of the selected phage clones in vivo, mice bearing HCT116 xenografts (300 mm^3) were injected with 2×10^11 pfu of either the selected phages or control phage through the tail vein. Phages were circulated and then were perfused with PBS buffer to wash out non-specific binders in circulation. After perfusion, we recovered and determined the […] of phage in tumor masses and normal organs.

Experiment [2] deals with HCT116 xenografts. Nature of the experiment: Immunohistochemical localization of phages in xenograft tumor and organs. The format is in vivo, mice. The conditions noted are these: tumor vs brain, heart, lungs, colon. Here is the method: The tissue samples from in vivo phage homing experiment were embedded in frozen blocks. To evaluate the phage distribution in each tissue by immunohistochemistry, the frozen specimens were cut to 8-μm-thick sections and were collected on coated slides. The slides were washed with cold PBS to remove OCT and were fixed with 4% paraformaldehyde for 10 min at RT. To block endogenous peroxidase activity, the slides were soaked with 3% hydrogen peroxide in methanol for 30 min at RT. The nonspecific antibody binding sites were blocked by immersing the section with 1% BSA in PBS for 30 min at RT. The tissue sections were incubated with mouse anti-M13 monoclonal antibody at 1:250 dilution for 1 hr, followed by adding Super Enhancer reagent (Super SENSITIVE™ Polymer HRP Detection System/DAB, BioGenex) for 20 min and Poly-HRP reagent (BioGenex) for 30 min. After washing, the sections were developed with DAB (3,3′-diaminobenzidine) Chromogen (BioGenex) supplemented with Stable DAB buffer. The reaction was stopped by adding PBS. For nuclei staining, the slides were immersed in hematoxylin for 5 min, and were then mounted with mounting solution to terminate the reaction. The images of sections were taken and analyzed using automated acquisition system (TissueGnostics).

In another experiment the test system is MDA-MB-231. The experiment can be described thus: Cellular ELISA of phage clones. The format is binding, human. Here is the method:
as §1, with “nm. To evaluate the binding activities of the three selected phage clones to various human cancer cell lines, cellular ELISA was performed to detect sixteen types of human cancer cell lines, including A498, HTB-10, B16-F10, SKOV3, PC-3, U2OS, 1112SK, […], SAS, H460, MIA Paca-2, HCT116, HUVAC, CL1-5, Mahlavu, and MDA-MB-231.” for “nm.”
For orientation: ELISA stands for enzyme-linked immunosorbent assay.

The test system of the next experiment is MIA Paca-2. The experiment can be described thus: Cellular ELISA of phage clones. The format is binding, human. Here is the method:
as §1, with “nm. To evaluate the binding activities of the three selected phage clones to various human cancer cell lines, cellular ELISA was performed to detect sixteen types of human cancer cell lines, including A498, HTB-10, B16-F10, SKOV3, PC-3, U2OS, 1112SK, […], SAS, H460, MIA Paca-2, HCT116, HUVAC, CL1-5, Mahlavu, and MDA-MB-231.” for “nm.”

The target in another experiment is T1, alpha-enolase (ENO1) (Homo sapiens, UniProt P06733).
T1 construct: endogenous in cells; host or cells: HCT116
The experiment can be described thus: Flow cytometry binding of HCT74 phage after ENO1 knockdown or overexpression. The text has this: To further confirm alpha-enolase was the target proteins of the pHCT74 peptide, correlation between the binding activity of HCT74 phage and ENO1 expression was examined. We established stable cell lines expressing shRNAs targeting ENO1 gene (FIG. 4E) and tested the binding activity of HCT74 phage by flow cytometry. The binding activity of HCT74 phage was reduced after ENO1 gene knockdown (FIG. 4F). Instead, after transient overexpression of ENO1 gene, the binding activity of HCT74 phage was increased (FIG. 4G). […] In addition, HCT74 phage specific binding to the alpha enolase protein was also confirmed by direct ELISA assay (FIG. 4H).
On the technique in general: A flow cytometer gives signals particle by particle.

The target of experiment [3] is recombinant α-enolase protein (Homo sapiens, UniProt P06733). The experiment can be described thus: Direct ELISA of HCT74 phage on recombinant α-enolase protein. The format is binding. The conditions noted are these: plate coated with 2 ug/mL α-enolase. As for the experimental part:
(A) Schematic diagram of the experimental design. (B) The binding characteristics of biotinylated pHCT74 peptide to HCT116 cells were evaluated by flow cytometry. (C) Affinity cross-linking of biotinylated pHCT74 peptide to the surface proteins of HCT116 cells, cross-linked proteins were cleaved from streptavidin dynabeads using 2-mercaptoethanol. […] (D) The peptide sequence (SEQ ID NO: 22) of target bands were deduced by tandem mass spectrometry. (E) Stable knockdown of ENO1 gene by introducing specific shRNA (ENO1-A, B, C and D shRNA) into HCT116 cells through infection with viral vectors. (F) The binding activity of HCT74 phage was reduced after α-enolase gene knockdown (G) The binding activity of HCT74 phage was enhanced when α-enolase was overexpressed. (H) Binding affinity of the HCT74 phage to recombinant α-enolase protein. The 96-well plate was pre-coated with 2 ug/mL α-enolase protein and incubated with increasing concentrations of HCT74 phage and then with HRP conjugated anti-M13 antibody. Data are presented as mean±standard deviation.
To further confirm alpha-enolase was the target proteins of the pHCT74 peptide, correlation between the binding activity of HCT74 phage and ENO1 expression was examined. We established stable cell lines expressing shRNAs targeting ENO1 gene (FIG. 4E) and tested the binding activity of HCT74 phage by flow cytometry. […]

T1 sequence (P06733 whole entry): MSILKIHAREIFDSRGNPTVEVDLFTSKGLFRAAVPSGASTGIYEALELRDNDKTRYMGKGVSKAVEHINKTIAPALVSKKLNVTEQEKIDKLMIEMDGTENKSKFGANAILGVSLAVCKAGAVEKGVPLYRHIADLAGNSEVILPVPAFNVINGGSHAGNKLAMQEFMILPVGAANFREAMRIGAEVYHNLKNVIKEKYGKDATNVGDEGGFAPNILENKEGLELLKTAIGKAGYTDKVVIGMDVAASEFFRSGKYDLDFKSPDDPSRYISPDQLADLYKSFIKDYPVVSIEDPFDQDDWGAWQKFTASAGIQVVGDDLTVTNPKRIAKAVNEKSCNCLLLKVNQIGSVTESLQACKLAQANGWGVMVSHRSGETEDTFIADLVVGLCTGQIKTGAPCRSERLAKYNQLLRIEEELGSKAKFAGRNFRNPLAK
Chain of recombinant α-enolase protein (P06733 whole entry): as above

In the case of SSMDIVLRAPLM [HCT74], the “binding by cellular ELISA” value with HCT116 cells, in the experiment on MDA-MB-231 and with MIA Paca-2 was “highly specific binding” each time. The “phage accumulation in tumor mass vs normal organs (phage titer)” value with HCT116 xenografts [1] is listed as “significantly accumulated in the tumor mass”. Also, the “phage localization by immunostaining of tissue sections” value is “selectively localized in tumor tissues” in the experiment with HCT116 xenografts [2] and “strong accumulated in the tumor” with HCT116 xenografts [2] (listed as HCT-74). Moreover, the “binding activity after ENO1 gene knockdown” value at alpha-enolase (ENO1) (HCT116 cells with shRNAs targeting ENO1) was “reduced”. Moreover, the “binding activity after transient overexpression of ENO1 gene” value on alpha-enolase (ENO1) (flow cytometry) is “increased”. Further, the “specific binding to alpha enolase protein” value in experiment [3] was “confirmed”.
